# Where two headings read alike, the source gives them in different places.
# Experiments:
# [1] = system: skin (forearm of panelists); assay: Moisturizing effect on skin: skin conductance (SKICON200-EX) on forearm of panelists; type: in vivo, human; conditions: for change in vivo at 5 %: Homo sapiens, topical, 20 min, read-out: Moisturizing effect on skin
# Description: Evaluation was carried out in a manner that forearm of panelists was washed and then applied with 100 μl of aqueous amino acid N-glyceryl derivative solution prepared in 5% concentration. Then, conductance value of the skin was measured by SKICON200-EX (manufactured by IBS K. K.) before the application and in 20 minutes elapsed after the application.
# Moisturizing effect on skin was evaluated by the following criteria.
# Moisturizing effect on skin rating criteria • ◯: Conductance changing ratio is 10% more • □: Conductance changing ratio is 3% or more and less than 10% • X: Conductance changing ratio is less than 3.
# [2] = Stability evaluation: odor of sample solution after storage at 50° C. for 1 month; conditions: for Stability: 5% by weight sample solution, sealed, 50° C., 1 month, odor, average of 5 panelists (3: no degradation odor, 1: strong degradation odor); for Formation of homogeneous solution of sample: 5% by weight sample solution for stability evaluation
# Description: [Method of Stability Evaluation]
# After 1 month being elapsed, the sealing was opened, followed by odor of samples being evaluated by 5 panelists according to the following criteria.
# Odor rating criteria • 3: No degradation odor • 2: Almost no degradation odor • 1: Strong degradation odor
# Odor evaluation value of each sample was the average of values determined by 5 panelists; the evaluation result was represented by the following marks rated according to respective criteria. • ∘: 2.4 or more and less than 3 • □: 1.8 or more and less than 2.4 • X: Less than 1.8
# [3] = Moisturizing effect measurement employing keratin powder (ground wool); type: physicochemical; conditions: (B/A)×100: water retained after further 6 hours at 20° C., 20.0% relative humidity, relative to water absorbed at 79.2% relative humidity for 48 hours
# Description: For the constant-humidity bath under 20.0% of relative humidity, saturated aqueous potassium acetate solution was employed.
# Moisturizing effect was evaluated by the following criteria,
# Moisturizing effect rating criteria • ⊚: 60 or more • ◯: 50 or more and less than 60 • Δ: 40 or more and less than 50 • X: Less than 40
# [4] = Moisture-absorption ability measurement employing keratin powder (ground wool); type: physicochemical; conditions: keratin powder with sample, 20° C., 79.2% relative humidity, 48 hours; absorbed water per 1 g of keratin powder
# Description: [Method of Moisture-Absorption Ability Measurement Carried Out by Employing Keratin Powder (Ground Wool)]
# Moisture-absorption ability was evaluated by the following criteria.
# Moisture-absorption ability rating criteria • ⊚: Amount of absorbed water per 1 g of keratin powder is 0.60 g or more. • ◯: Amount of absorbed water per 1 g of keratin powder is 0.50 g or more and less than 0.60 g • Δ: Amount of absorbed water per 1 g of keratin powder is 0.40 g or more and less than 0.50 g • X: Amount of absorbed water per 1 g of keratin powder is less than 0.40 g [Method of Moisturizing Effect Measurement Carried Out by Employing Keratin Powder (Ground Wool)]
# [5] = 100 μl of 5% aqueous solution on washed forearm, ten panelists, conductance changing ratio before vs 20 minutes after application
Stability [2],Moisturizing effect [3],Formation of homogeneous solution of sample [2],Molecule,"Moisturizing effect on skin [1, 5]",Moisture-absorption ability [4],change in vivo at 5 % [1] [%],"change in vivo at 5 % [1, 5] [%]"
,,,1 sodium N-glycerylaspartate [Glyceryl derivative of aspartic acid],⊚,,,
X (Less than 1.8),,,C[C@H](N)C(=O)O [Alanine],,,,
◯,◯ (50 or more and less than 60),,OCC(O)CO [Glycerin],,◯ (Amount of absorbed water per 1 g of keratin powder is 0.50 g or more and less than 0.60 g),,
Δ,◯ (50 or more and less than 60),,"C[C@H](NCC(O)CO)C(=O)O (stereo partly drawn) [Glyceryl derivative of alanine, N-glycerylalanine]",,⊚ (Amount of absorbed water per 1 g of keratin powder is 0.60 g or more),,> 10
⊚,⊚ (60 or more),,"Cl.N=C(N)NCCC[C@H](NCC(O)CO)C(=O)O (stereo partly drawn) [Glyceryl derivative of arginine, N-glycerylarginine hydrochloride]",⊚,⊚ (Amount of absorbed water per 1 g of keratin powder is 0.60 g or more),,
◯,⊚ (60 or more),,"O=C([O-])CC[C@H](NCC(O)CO)C(=O)[O-].[Na+].[Na+] (stereo partly drawn) [Glyceryl derivative of glutamic acid, sodium N-glycerylglutamate]",⊚,⊚ (Amount of absorbed water per 1 g of keratin powder is 0.60 g or more),,
Δ,⊚ (60 or more),,"O=C(O)CNCC(O)CO (stereo not drawn) [Glyceryl derivative of glycine, N-glycerylglycine]",,⊚ (Amount of absorbed water per 1 g of keratin powder is 0.60 g or more),,> 10
,⊚ (60 or more),,"Cl.O=C(O)[C@H](Cc1c[nH]cn1)NCC(O)CO (stereo partly drawn) [Glyceryl derivative of histidine, M-glycerylhistidine hydrochloride]",⊚,⊚ (Amount of absorbed water per 1 g of keratin powder is 0.60 g or more),,
,◯ (50 or more and less than 60),,"CC(C)C[C@H](NCC(O)CO)C(=O)O (stereo partly drawn) [Glyceryl derivative of leucine, N-glycervylleucine]",◯ (Conductance changing ratio is 10% more),⊚ (Amount of absorbed water per 1 g of keratin powder is 0.60 g or more),,
Δ,⊚ (60 or more),,"Cl.NCCCC[C@H](NCC(O)CO)C(=O)O (stereo partly drawn) [Glyceryl derivative of lysine, N-glyceryllysine hydrochloride]",⊚,⊚ (Amount of absorbed water per 1 g of keratin powder is 0.60 g or more),,
◯,◯ (50 or more and less than 60),,"O=C(O)[C@H](Cc1ccccc1)NCC(O)CO (stereo partly drawn) [Glyceryl derivative of phenylalanine, N-glycerylphenylalanine]",,⊚ (Amount of absorbed water per 1 g of keratin powder is 0.60 g or more),,> 10
Δ,⊚ (60 or more),,"O=C(O)[C@@H]1CCCN1CC(O)CO (stereo partly drawn) [Glyceryl derivative of proline, N-glycerylproline]",,⊚ (Amount of absorbed water per 1 g of keratin powder is 0.60 g or more),,> 10
,⊚ (60 or more),,"CN(CC(=O)O)CC(O)CO (stereo not drawn) [Glyceryl derivative of sarcosine, N-glyaerylsarcosine]",◯ (Conductance changing ratio is 10% more),⊚ (Amount of absorbed water per 1 g of keratin powder is 0.60 g or more),,
◯,⊚ (60 or more),,"O=C(O)[C@H](CO)NCC(O)CO (stereo partly drawn) [Glyceryl derivative of serine, N-glycerylserine]",,⊚ (Amount of absorbed water per 1 g of keratin powder is 0.60 g or more),,> 10
,Δ (40 or more and less than 50),,NCC(=O)O [Glycine],Δ,Δ (Amount of absorbed water per 1 g of keratin powder is 0.40 g or more and less than 0.50 g),,
,Δ (40 or more and less than 50),,Cl.N[C@@H](Cc1cnc[nH]1)C(=O)O [Histidine hdrochloride],Δ,Δ (Amount of absorbed water per 1 g of keratin powder is 0.40 g or more and less than 0.50 g),,
Δ,,did not form homogeneous solution,CC(C)C[C@H](N)C(=O)O [Leucine],,,,< 3
Δ,X (Less than 40),did not form homogeneous solution,N[C@@H](Cc1ccccc1)C(=O)O [Phenylalanine],,X (Amount of absorbed water per 1 g of keratin powder is less than 0.40 g),,< 3
,◯ (50 or more and less than 60),,O=C(O)[C@@H]1CCCN1 [Proline],Δ,◯ (Amount of absorbed water per 1 g of keratin powder is 0.50 g or more and less than 0.60 g),,
Δ,Δ (40 or more and less than 50),,CNCC(=O)O [Sarcosine],,Δ (Amount of absorbed water per 1 g of keratin powder is 0.40 g or more and less than 0.50 g),,< 3
,Δ (40 or more and less than 50),,N[C@@H](CO)C(=O)O [Serine],,Δ (Amount of absorbed water per 1 g of keratin powder is 0.40 g or more and less than 0.50 g),,< 3
Δ,Δ (40 or more and less than 50),,N[C@@H](CCC(=O)[O-])C(=O)[O-].O.[Na+].[Na+] [Sodium glutamate hydrate],,Δ (Amount of absorbed water per 1 g of keratin powder is 0.40 g or more and less than 0.50 g),> 10,

Molecule,Stability [2],Moisturizing effect [3],Formation of homogeneous solution of sample [2],"Moisturizing effect on skin [1, 5]",Moisture-absorption ability [4],change in vivo at 5 % [1] [%],"change in vivo at 5 % [1, 5] [%]"
"CC(O)CCO (stereo not drawn) [1,3-Butylene glycol]",Δ,Δ (40 or more and less than 50),,Δ,Δ (Amount of absorbed water per 1 g of keratin powder is 0.40 g or more and less than 0.50 g),,
Cl.N=C(N)NCCC[C@H](N)C(=O)O [Arginine hydrochloride],◯,◯ (50 or more and less than 60),,,◯ (Amount of absorbed water per 1 g of keratin powder is 0.50 g or more and less than 0.60 g),> 10,
Cl.NCCCC[C@H](N)C(=O)O [Lysine hydrochloride],Δ,Δ (40 or more and less than 50),,Δ,Δ (Amount of absorbed water per 1 g of keratin powder is 0.40 g or more and less than 0.50 g),,
N[C@@H](CC(=O)[O-])C(=O)[O-].O.[Na+].[Na+] [Sodium aspartate hydrate],Δ,Δ (40 or more and less than 50),,Δ,Δ (Amount of absorbed water per 1 g of keratin powder is 0.40 g or more and less than 0.50 g),,

# — US20060018864A1, “Cosmetic preparation containing glycerylamino acid derivative” (priority 2002, published 2006)
